The NIST ThermoML archive (doi:10.1016/j.jct.2016.03.030)
± gives the expanded uncertainty stated by the source.

Tests used:
[1] = xn = mol fraction of the nth substance listed; settings: 100 kPa, Liquid, x2 = 0; for viscosity: Falling or rolling sphere viscometry; for mass density: Vibrating tube method
[2] = Molar enthalpy of transition or fusion; settings: DSC
[3] = for viscosity: 100 kPa, Liquid, Falling or rolling sphere viscometry

Structure (SMILES)	viscosity ([1]; 298.15 K) [mPa·s]	viscosity ([1]; 303.15 K) [mPa·s]	viscosity ([1]; 308.15 K) [mPa·s]	viscosity ([1]; 313.15 K) [mPa·s]	viscosity ([1]; 318.15 K) [mPa·s]	mass density ([1]; 318.15 K) [kg/m3]	viscosity ([1]; 323.15 K) [mPa·s]	mass density ([1]; 323.15 K) [kg/m3]	viscosity ([1]; 328.15 K) [mPa·s]	mass density ([1]; 328.15 K) [kg/m3]	viscosity ([1]; 333.15 K) [mPa·s]	mass density ([1]; 333.15 K) [kg/m3]	viscosity ([1]; 338.15 K) [mPa·s]	mass density ([1]; 338.15 K) [kg/m3]	viscosity ([1]; 343.15 K) [mPa·s]	mass density ([1]; 343.15 K) [kg/m3]	Molar enthalpy of transition or fusion ([2]; Crystal 1) [kcal/mol]	Normal melting temperature ([3]; Crystal 1, DTA) [°C]	other results
O [water] + CCC[N+]1(C)CCOCC1.[Br-]	0.912 ± 0.091	0.819 ± 0.082	0.739 ± 0.074	0.671 ± 0.067	0.611 ± 0.061	990.1 ± 1	0.559 ± 0.056	987.9 ± 1	0.514 ± 0.052	985.6 ± 1	0.474 ± 0.048	983.2 ± 1	0.439 ± 0.044	980.3 ± 1	0.408 ± 0.041	978.1 ± 1	–	–	–
CCC[N+]1(C)CCOCC1.[Br-] [4-methyl-4-propylmorpholinium bromide]	–	–	–	–	–	–	–	–	–	–	–	–	–	–	–	–	2.72 ± 0.263	180.79 ± 0.41	Molar enthalpy of transition or fusion ([2]; Crystal 2): 0.55 ± 0.239 kcal/mol; Triple point temperature ([3]; Crystal 2, DSC): 341.13 ± 0.77 K
O [water] + CCCCC[N+]1(C)CCCCC1.[Br-]	0.912 ± 0.091	0.819 ± 0.082	0.739 ± 0.074	0.671 ± 0.067	0.611 ± 0.061	990.1 ± 1	0.559 ± 0.056	987.9 ± 1	0.514 ± 0.052	985.6 ± 1	0.474 ± 0.048	983.2 ± 1	0.439 ± 0.044	980.3 ± 1	0.408 ± 0.041	978.1 ± 1	–	–	–
O [water]	–	–	–	–	–	–	–	–	–	–	–	–	–	–	–	–	–	–	viscosity ([3]; 298.15 K): 0.912 ± 0.091 mPa·s; viscosity ([3]; 303.15 K): 0.819 ± 0.082 mPa·s; viscosity ([3]; 308.15 K): 0.739 ± 0.074 mPa·s; viscosity ([3]; 313.15 K): 0.671 ± 0.067 mPa·s; viscosity ([3]; 318.15 K): 0.611 ± 0.061 mPa·s; viscosity ([3]; 323.15 K): 0.559 ± 0.056 mPa·s; viscosity ([3]; 328.15 K): 0.514 ± 0.052 mPa·s; viscosity ([3]; 333.15 K): 0.474 ± 0.048 mPa·s; viscosity ([3]; 338.15 K): 0.439 ± 0.044 mPa·s; viscosity ([3]; 343.15 K): 0.408 ± 0.041 mPa·s; Normal melting temperature ([3]; Crystal, visual observation): 0.00 ± 0.39 °C
O [water] + CCCCC[N+]1(C)CCOCC1.[Br-]	0.912 ± 0.091	0.819 ± 0.082	0.739 ± 0.074	0.671 ± 0.067	0.611 ± 0.061	990.1 ± 1	0.559 ± 0.056	987.9 ± 1	0.514 ± 0.052	985.6 ± 1	0.474 ± 0.048	983.2 ± 1	0.439 ± 0.044	980.3 ± 1	0.408 ± 0.041	978.1 ± 1	–	–	–
CCCCC[N+]1(C)CCCCC1.[Br-] [1-methyl-1-pentylpiperidinium bromide]	–	–	–	–	–	–	–	–	–	–	–	–	–	–	–	–	2.11 ± 0.263	173.7 ± 0.41	–
O [water] + CCCC[N+]1(C)CCOCC1.[Br-]	0.912 ± 0.091	0.819 ± 0.082	0.739 ± 0.074	0.671 ± 0.067	0.611 ± 0.061	990.1 ± 1	0.559 ± 0.056	987.9 ± 1	0.514 ± 0.052	985.6 ± 1	0.474 ± 0.048	983.2 ± 1	0.439 ± 0.044	980.3 ± 1	0.408 ± 0.041	978.1 ± 1	–	–	–
CCCCC[N+]1(C)CCOCC1.[Br-] [4-methyl-4-pentylmorpholinium bromide]	–	–	–	–	–	–	–	–	–	–	–	–	–	–	–	–	1.94 ± 0.263	194 ± 0.41	–
CCCC[N+]1(C)CCOCC1.[Br-] [4-butyl-4-methylmorpholinium bromide]	–	–	–	–	–	–	–	–	–	–	–	–	–	–	–	–	3.37 ± 0.263	211.32 ± 0.41	–
